Experimental findings from a melting point compilation (Tetko et al.; mined from patent text by program, amines drawn as free bases though some values may be those of a salt) are described below.

Molecules are shown by their SMILES.

A word on the melting point: it is the temperature of the solid-liquid transition. As for `Nc1cc(-c2ncnc(C(F)F)c2Cl)c(F)cc1Cl`, the melting point fell in the range of 106 to 108 °C.
The molecule `Cc1nn(Cc2ccccc2)cc1C(=O)Nc1ccc(N2CCC(N3CCOCC3)CC2)c(C#N)c1` had a melting point of 193 °C.
As to `COc1cc(-c2nc3cc(OC)cc(OC)c3c(=O)[nH]2)cc(N2CCN(C(C)C)CC2)c1`, the melting point fell in the range of 212 to 213 °C.
With `CCN(CC)CC#CCCC(=O)C(O)(c1ccccc1)C1CCCCC1` (centres undefined) the figure was 112 to 115 °C.
Regarding `OCCCc1c[nH]c2ccc(-n3cnnc3)cc12`, the melting point lay within 205 to 207 °C.
In turn, `CSc1nn2c(N)cc(C)nc2c1S(=O)(=O)c1ccccc1` had a melting point greater than 230 °C.
For `Fc1cc(F)cc(C=Cc2cc3cc4ccccc4cc3s2)c1`, the melting point was 265 to 267 °C.
With `N=c1[nH]c2ccc(Cl)cc2c2ncnn12` the figure was 279 to 280 °C; with `OCc1cn(Cc2ccc(OCc3ccccc3)cc2)nc1-c1ccccc1`, 88 to 89 °C.
`COc1ccc2cccc(C(=O)CNC(C)=O)c2c1`: the melting point was 122 to 124 °C.
The result for `Cc1cc(C(C)(C)C)c(O)c(C)c1COC(=O)c1ccc(C(=O)OCc2c(C)cc(C(C)(C)C)c(O)c2C)cc1` reads 227 to 230 °C.
The result for `Fc1ccc(C#CC2=CCN(Cc3coc4ccccc34)CC2)cc1` reads 79 to 80 °C; that for `Cc1cccc(C2CCCCS2=O)n1` (centres undefined), 100 °C; that for `Nc1nc(-c2ccc(F)cc2)cc(-c2ccc(F)cc2)n1`, 207 to 210 °C.
The result for `Nc1ncc2c(n1)-c1sc(N)nc1CC2` reads 293 to 300 °C; that for `Nc1ccc2cnn(-c3ccnc(N[C@H]4CC[C@H](O)CC4)n3)c2c1`, 236 to 238 °C; that for `COC(=O)Nc1nc2ccccc2n1CCCN1CCN(C(c2ccccc2)c2ccccc2)CC1`, 138 °C.
`Cc1cc(S(N)(=O)=O)ccc1N1CN(c2ccccc2)CC1=O` came in with a melting point of 206 to 210 °C.
As to `COC(=O)CCCCOc1ccc(CNC(=O)C2Cc3ccccc3N2S(=O)(=O)c2ccc(-c3cccc(C(F)(F)F)c3)cc2)cc1` (centres undefined), the melting point was 50 °C.
The molecule `CN1C(=O)CN(C(=O)c2ccccc2)N(c2cc(Cl)c(C(C#N)c3ccc(Cl)cc3)c(Cl)c2)C1=O` (centres undefined) came in with a melting point of 148 °C.
The result for `CCCCN(C)CCOc1ccc(-n2c(-c3ccc(O)cc3)c(C)c3cc(O)ccc32)cc1` reads 102 to 107 °C.
Consider `CNCCOc1ccc2nc(SCc3ccc(Cl)cc3)sc2c1`, for which the melting point lay in the range of 56 to 58 °C.
Molecule `Cc1cc2c(nc1C(O)c1ccc(C(F)(F)F)cc1)CCCCC2` (centres undefined) registered a melting point of 131 to 133 °C.
Molecule `CS(=O)(=O)Nc1cc([C@@H](O)CNC2CCN(c3ccc(S(=O)(=O)N4CC(=O)NC4=O)cc3)CC2)ccc1O` returned a melting point of 200 to 202 °C.
The result for `CC(=O)Nn1cnn(C2CCc3ccccc3C2)c1=S` (centres undefined) reads 199 to 201 °C.
Regarding `CS(=O)(=O)Oc1cccnc1`, the melting point lay in the range of 56 to 58 °C.
Consider `O=C(O)CSCCSc1ccc(O)cc1`, for which the melting point turned out to be 105 °C.
For `O=C(CBr)Nc1cc(F)c(F)cc1C(=O)O`, the melting point lay within 177 to 180 °C.
With `CCc1noc(C(=O)Nc2ccccc2)c1C(=O)O` the figure was 150 to 152 °C.
The result for `O=[N+]([O-])c1cccnc1NCCc1c[nH]cn1` reads 178 to 180 °C; that for `COC(=O)CCCc1cc2cc(Cl)ccc2n1S(=O)(=O)c1ccc(F)c([N+](=O)[O-])c1`, 93 °C; that for `COc1cccc(S(=O)(=O)c2cccc(N)c2C#N)c1`, 186 to 191 °C.
The result for `Cc1c(F)c(N2CCNC(C)C2)cc2c1C(=O)CCN2C1CC1` (centres undefined) reads 98 to 100 °C; that for `Nc1nc(Cn2c(-c3ccc(Oc4cncnc4)cc3)ccc2-c2ccccc2Cl)ccc1OCCO`, 78 to 81 °C.
`NC(=O)c1nc(Cl)sc1Cl`: the melting point was determined as 153 °C.
Take `CCOC(=O)c1cn(Cc2ccc(OCc3nc(-c4ccccc4)oc3C)cc2)nc1O`: the melting point was in the range of 152 to 153 °C.
Regarding `Cc1ccc(S(=O)(=O)NC[C@H]2CN3C(=O)C[C@H]3O2)cc1` (racemic), the melting point fell in the range of 123 to 125 °C.
`O=C(O)C1c2cccnc2NN1C(=O)O` (centres undefined): the melting point is 270 to 285 °C.
In the case of `CCN(CC)C(=O)Nc1ccc(-c2c[nH]c(=O)cn2)cc1`, the melting point lay in the range of 154 to 155 °C.
In turn, `O=C1CNC(=O)C(=Cc2cc3ccccc3s2)N1` displayed a melting point of 258 °C.
With `CC(=O)Nc1cc2c(s1)CCCN(CCCCN1CCN(c3ncccn3)CC1)C2=O` the figure was 158 to 161 °C; with `CCCc1c(C(=O)C(C)C)c2ccc(C(N)=O)cc2n1Cc1ccccc1NC(=O)NC`, 222 to 223 °C; with `N=C(NO)C1C=Cc2ccccc2N1C(=O)c1ccccc1` (centres undefined), 176 to 178 °C.
With `CS(=O)(=O)Nc1cccc(-c2cccc(-c3nc(-c4ccc(C(F)(F)F)cc4)cc(C(F)(F)F)n3)c2)c1` the figure was 191 °C; with `N#Cc1ccc(OCCCOc2ccc(-c3cc4ccc(C#N)cc4o3)cc2)cc1`, 208 to 210 °C; with `Cc1c(C)n(CC=CC(F)(F)F)c2c(OCc3ccccc3)nncc12`, 138 to 140 °C.
The result for `CS(=O)(=O)c1ccc(-c2c(-c3ccc(F)cc3)c(=O)n3n2Cc2c(Cl)cccc2-3)cc1` reads 237 to 240 °C; that for `Cc1cc(-n2ccnc2)c2cccc(OCc3c(Cl)ccc(S(=O)(=O)N4CCC[C@H]4C(=O)NCC4CCN(CCOCCO)CC4)c3Cl)c2n1`, 96 °C.
For the molecule `COCn1c(-c2nc3c(OC)ccc(N4CCOCC4)c3s2)nc2ccc(N3CCC(O)CC3)nc21`, the melting point lay within 120 to 130 °C.
Turning to `CCC1N=C(c2ccccc2Cl)c2cc(CCC(=O)OC)sc2NC1=S` (centres undefined), the melting point was 173 to 176 °C.
With `CC#CCOc1ccc(S(=O)(=O)C2(C(=O)O)CCN(Cc3ccc(F)cc3)CC2)cc1` the figure was 106 °C.
With `CC1=CC(O)C(OC(=O)c2ccc([N+](=O)[O-])cc2)C(C)(C)CC1=O` (centres undefined) the figure was 148 to 150 °C; with `CC(C)(C)Cc1c(CC(C)(C)C(=O)O)n(Cc2ccc(Cl)cc2)c2ccc(OCc3ccc4sccc4n3)cc12`, 187 to 188 °C; with `Cc1cccnc1C(=O)c1[nH]c2cc(Cl)ccc2c1CC(=O)O`, 195 to 196 °C.
With `CCCc1nc(SC)c(C(O)(C(=O)O)C(C)C)n1Cc1ccc(-c2ccccc2S(=O)(=O)NC(=O)NCc2ccccc2)cc1` (centres undefined) the figure was 180 °C; with `CC(=O)N1N=C(c2ccncc2)OC1c1ccc(Cl)c(Cl)c1` (centres undefined), 101 to 104 °C.
`CCCc1c(C(=O)C(C)C)c2ccc(CC(=O)OC)cc2n1Cc1cc2c(cc1Cl)OCO2` had a melting point of 119 to 120 °C.
The molecule `CC1N(C(=O)c2ccc(C(F)(F)F)cc2)CC(n2cncn2)OC1(Cn1cncn1)c1ccc(Cl)cc1Cl` (centres undefined) gave a melting point of 191 to 201 °C.
The result for `CS(=O)(=O)Nc1ccc(C=CC(=O)O)cc1` reads 218 °C; that for `CCOC(=O)COc1cc(F)ccc1C(=S)NCc1cccc([N+](=O)[O-])c1`, 118 °C.
`C(=C\c1nc(COc2ccc(CCCn3ccnc3)cc2)co1)/c1ccco1`: the melting point fell in the range of 122 to 123 °C.
For `CC(C)(C)c1cc(C(O)c2ccccc2)cc(C(C)(C)C)c1O` (centres undefined), the melting point lay in the range of 117 to 119 °C.
With `CCC[C@H]1C(=O)N(S(=O)(=O)c2cccc3ccccc23)[C@H]2CCN(S(=O)(=O)CCCN3CCOCC3)[C@H]12` (relative stereo) the figure was 146 to 148 °C; with `O=C(O)c1ccccc1Nc1cccc(/C=C/c2nc3ccccc3s2)c1`, 146 to 150 °C; with `Cc1cc(OCC(O)CCCl)ccc1Cl` (centres undefined), 87 to 89 °C.
With `COc1ccc(C(=O)Nc2ccc(CN3C(=O)[C@H]4CCC[C@H]4N(C(=O)CN4C(=O)c5ccccc5C4=O)c4ccccc43)cc2)cc1` (relative stereo) the figure was 170 to 173 °C.
In turn, `CN1CC(C)(C)c2ccc(NC(=O)/C=C/c3ccc(C(C)(C)C)cc3)cc21` gave a melting point of 90 to 101 °C.
The molecule `CCOCCN(CC1=CCC(N)(Oc2ccccc2)C=C1)C(=O)C(Cl)Cl` (centres undefined) came in with a melting point of 96 to 98 °C.
Consider `Fc1ccc(-c2ncn(C3CCNCC3)c2-c2ccnc(Oc3ccccc3)n2)cc1`, for which the melting point was 182 to 183 °C.
The result for `O=C(Nc1ccc(-n2nc(C(F)(F)F)cc2C(F)(F)F)cc1)C1CCCCC1` reads 178 to 180 °C.
The result for `Nc1cccc2c(=O)[nH]ccc12` reads 258 to 259 °C; that for `Cn1c2ccc(C=O)cc2c2sc3ccccc3c21`, 188 to 190 °C.
The result for `O=C(O)c1cccc(OCc2ccc3ccccc3n2)c1` reads 178 to 182 °C; that for `CC(C)Nc1nc2cc(Cl)c(Cl)cc2n1[C@H]1O[C@@H](C)[C@H](O)[C@@H]1O`, 103 to 105 °C.
Take `CCOC(=O)C(=CNC(C)(C)C)C(=O)c1cc(F)c(Cl)cc1Cl`: the melting point is 87 °C.
With `CCOCCCc1ccc(-c2ccc3c(c2)C=C(C(=O)Nc2ccc(CN(C)C4CCOCC4)cc2)CCS3(=O)=O)cc1` the figure was 217 to 219 °C; with `OC(c1cc(Cl)cc(Cl)c1)c1cc(Cl)cc(Cl)c1`, 126 °C.
The result for `COc1ccc(N2C(=O)[C@@H](CCCc3ccccc3)[C@@H]2c2ccc(N3CCN(Cc4ccccc4)CC3)cc2)cc1` (relative stereo) reads 139 to 140 °C; that for `ClCc1nc(NCc2ccccn2)c2c(-c3ccccc3)csc2n1`, 97 to 99 °C; that for `CCC(CC)[C@@H](CO)NS(=O)(=O)c1ccc(Cl)s1`, 115 to 118 °C.
The result for `COc1cc2c(cc1-c1cnccn1)-c1c(-c3cncs3)c3c(n1CC2)C(=O)N(C(C)(C)C)CCCOC3` reads 235 to 236 °C; that for `CCCCc1nc2c(N)nc3ccc(O)cc3c2n1CCCCNC(=O)c1ccccc1`, 188 to 190 °C; that for `O=C(O)c1ccc(-c2ccc3cc(OCc4ccccc4)c(C45CC6CC(CC(C6)C4)C5)cc3c2)s1`, 170 to 171 °C.
With `CCCCc1nc2c(N)nc3ccccc3c2n1CCCNC(=O)c1ccccc1`, the melting point lay in the range of 189 to 190 °C.
